Assay results reported in patent US6900219B2, “ABCA-1 elevating compounds” (CV Therapeutics, Inc., priority 2002, dated 2005).

Tested on: ABCA-1 gene
Experiment: compounds tested and found to elevate cellular expression of the ABCA-1 gene (Examples 1-6; test not named)
Assay type: cell-based
Procedure: Activity testing is conducted as described in those patents and patent applications referenced above, and in the Examples below, and by methods apparent to one skilled in the art.

Structure (SMILES) | cellular expression of the ABCA-1 gene
CCCN(C(=O)Nc1ccc(Br)cc1)C(C)c1nc2cc(Cl)ccc2c(=O)n1-c1ccc(C)cc1 (stereo not drawn) [3-(4-bromo-phenyl)-1-[1-(7-chloro-4-oxo-3-p-tolyl-3,4-dihydro-quinazolin-2-yl)-ethyl]-1-propyl-urea] | elevate cellular expression of the ABCA-1 gene
Clc1ccc(-c2cc(-c3ccccc3)[nH]n2)cc1 [3-(4-chlorophenyl)-5-phenylpyrazole] | elevate cellular expression of the ABCA-1 gene
Fc1cccc(CSc2ncc3ccccn23)c1 [3-[(3-fluorophenyl)methylthio]-4-hydroimidazolo[1,5-a]pyridine] | elevate cellular expression of the ABCA-1 gene
Cc1ccc(-c2ccc3c(N)c(C#N)sc3n2)cc1 [3-amino-6-(4-methylphenyl)thiopheno[2,3-b]pyridine-2-carbonitrile] | elevate cellular expression of the ABCA-1 gene
O=C(CCC1CCCC1)Nc1ccc2c(c1)CCC2 [3-cyclopentyl-N-indan-5-ylpropanamide] | elevate cellular expression of the ABCA-1 gene
O=[N+]([O-])c1ccc(COc2ccc(C3SCCS3)cc2)cc1 [4-(1,3-dithiolan-2-yl)-1-[(4-nitrophenyl)methoxy]benzene] | elevate cellular expression of the ABCA-1 gene
Cc1ccc(-n2ncc(N(C)n3cccc3)c(Cl)c2=O)cc1 [4-chloro-2-(4-methylphenyl)-5-(methylpyrrolylamino)-2-hydropyridazin-3-one] | elevate cellular expression of the ABCA-1 gene
O=C(Nc1nccs1)c1ccc(C(F)(F)F)cc1 [4-trifluoromethylphenyl-N-(1,3-thiazol-2-yl)carboxamide] | elevate cellular expression of the ABCA-1 gene
CCOc1ccc(-n2c(C(C)N3CCN(C(=O)Nc4ccc(OC)cc4OC)CC3)nc3ccccc3c2=O)cc1 (stereo not drawn) [4-{1-[3-(4-ethoxyphenyl)-4-oxo-3,4-dihydro-quinazolin-2-yl]-ethyl}-piperazine-1-carboxylic acid (2,4-dimethoxy-phenyl)-amide] | elevate cellular expression of the ABCA-1 gene
CCCOc1nc(-c2ccc(Cl)cc2Cl)n(S(=O)(=O)Cc2ccccc2)n1 [5-(2,4-dichlorophenyl)-1-[benzylsulfonyl]-3-propoxy-1,2,4-triazole] | elevate cellular expression of the ABCA-1 gene
Cc1ccc(-c2ncc(-c3ccc(Cl)cc3)o2)cc1 [5-(4-chlorophenyl)-2-(4-methylphenyl)-1,3-oxazole] | elevate cellular expression of the ABCA-1 gene
CCc1c(C(=O)NCc2ccco2)cnn1-c1nc(-c2ccc(C)cc2)cs1 [5-ethyl-1-(4-p-tolyl-thiazol-2-yl)-1H-pyrazole-4-carboxylic acid (furan-2-ylmethyl)-amide] | elevate cellular expression of the ABCA-1 gene
CCc1c(C(=O)NCc2ccco2)cnn1-c1nc(-c2ccc(OC)cc2)cs1 [5-ethyl-1-[4-(4-methoxy-phenyl)-thiazol-2-yl]-1H-pyrazole-4-carboxylic acid (furan-2-ylmethyl)-amide] | elevate cellular expression of the ABCA-1 gene
Cc1ccc(-c2csc(-n3ncc(C(=O)NC(C)c4ccccc4)c3C(C)C)n2)cc1 (stereo not drawn) [5-isopropyl-1-(4-p-tolyl-thiazol-2-yl)-1H-pyrazole-4-carboxylic acid (1-phenyl-ethyl)-amide] | elevate cellular expression of the ABCA-1 gene
Cc1ccc(-c2csc(-n3ncc(C(=O)NCCC(C)C)c3C(C)C)n2)cc1 [5-isopropyl-1-(4-p-tolyl-thiazol-2-yl)-1H-pyrazole-4-carboxylic acid (3-methyl-butyl)-amide] | elevate cellular expression of the ABCA-1 gene
Cc1ccc(-c2csc(-n3ncc(C(=O)NC4CC4)c3C(C)C)n2)cc1 [5-isopropyl-1-(4-p-tolyl-thiazol-2-yl)-1H-pyrazole-4-carboxylic acid cyclopropylamide] | elevate cellular expression of the ABCA-1 gene
Cc1ccc(-c2csc(-n3ncc(C(=O)NCCc4ccccc4)c3C)n2)cc1 [5-methyl-1-(4-p-tolyl-thiazol-2-yl)-1H-pyrazole-4-carboxylic acid phenethyl-amide] | elevate cellular expression of the ABCA-1 gene
O=[N+]([O-])c1ccc(-c2cnc3ccc(Cl)cn23)cc1 [6-chloro-3-(4-nitrophenyl)-4-hydroimidazolo[1,2-a]pyridine] | elevate cellular expression of the ABCA-1 gene
Cc1ccc2nc3c(nc2c1)-c1ccccc1C3=O [7-methylindeno[2,3-b]quinoxalin-1′-one] | elevate cellular expression of the ABCA-1 gene
CSC(N)=N/N=C/c1ccc(Cl)cc1 [(1 Z,3E)-2,3-diaza-4-(4-chlorophenyl)-1-methylthiobuta-1,3-dienylamine] | elevate cellular expression of the ABCA-1 gene
COc1ccc(C(=O)O/N=C(/N)c2cccnc2)cc1 [(1E)-2-amino-1-aza-2-(3-pyridyl)vinyl 4-methoxybenzoate] | elevate cellular expression of the ABCA-1 gene

Structure (SMILES) | cellular expression of the ABCA-1 gene
COc1ccc(/C(N)=N\OC(=O)c2ccccc2OC)cc1 [(1E)-2-amino-1-aza-2-(4-methoxyphenyl)vinyl 2-methoxybenzoate] | elevate cellular expression of the ABCA-1 gene
O=C(Nc1nc2c(Cl)cccc2s1)c1ccc2c(c1)OC(F)(F)O2 [(2,2-difluorobenzo[3,4-d]1,3-dioxolen-5-yl)-N-(4-chlorobenzothiazol-2-yl)carboxamide] | elevate cellular expression of the ABCA-1 gene
O=C(NC1=NCCS1)c1ccc(Cl)cc1Cl [(2,4-dichlorophenyl)-N-(1,3-thiazolin-2-yl)carboxamide] | elevate cellular expression of the ABCA-1 gene
O=C(Nc1nc(-c2ccc3ccccc3c2)cs1)c1ccc(F)cc1F [(2,4-difluorophenyl)-N-(4-(2-naphthyl)(1,3-thiazol-2-yl))carboxamide] | elevate cellular expression of the ABCA-1 gene
O=C(Nc1ncc(-c2ccccc2)s1)c1ccc(F)cc1F [(2,4-difluorophenyl)-N-(5-phenyl(1,3-thiazol-2-yl)) carboxamide] | elevate cellular expression of the ABCA-1 gene
O=C(Nc1nc(-c2ccc(Cl)cc2)cs1)c1ccc(F)cc1F [(2,4-difluorophenyl)-N-[4-(4-chlorophenyl)(1,3-thiazol-2-yl)]carboxamide] | elevate cellular expression of the ABCA-1 gene
Cc1cc(C(=O)Nc2ncc(-c3ccccc3)s2)c(C)o1 [(2,5-dimethyl(3-furyl))—N-(5-phenyl(1,3-thiazol-2-yl))carboxamide] | elevate cellular expression of the ABCA-1 gene
Nc1ccccc1C(=O)Nc1ccc(Cl)cc1 [(2-aminophenyl)-N-(4-chlorophenyl)carboxamide] | elevate cellular expression of the ABCA-1 gene
Cc1ccc(NC(=O)c2ccccc2N)cc1 [(2-aminophenyl)-N-(4-methylphenyl)carboxamide] | elevate cellular expression of the ABCA-1 gene
O=C(NCCc1ccccn1)c1ccc([N+](=O)[O-])cc1Cl [(2-chloro-4-nitrophenyl)-N-(2-(2-pyridyl)ethyl)carboxamide] | elevate cellular expression of the ABCA-1 gene
O=C(NCCc1ccccn1)c1ccccc1Cl [(2-chlorophenyl)-N-(2-(2-pyridyl)ethyl)carboxamide] | elevate cellular expression of the ABCA-1 gene
O=C(Nc1ccc(Cl)cc1)c1ccccc1Cl [(2-chlorophenyl)-N-(4-chlorophenyl)carboxamide] | elevate cellular expression of the ABCA-1 gene
O=C(NNC(=S)Nc1ccccc1Cl)c1ccccc1Cl [(2-chlorophenyl)-N-({[(2-chlorophenyl)amino]thioxomethyl}amino)carboxamide] | elevate cellular expression of the ABCA-1 gene
O=C(NC1=NCCS1)c1ccccc1F [(2-fluorophenyl)-N-(1,3-thiazolin-2-yl)carboxamide] | elevate cellular expression of the ABCA-1 gene
Cc1ccc2cc(NC(=O)c3ccccc3F)ccc2n1 [(2-fluorophenyl)-N-(2-methyl(6-quinolyl))carboxamide] | elevate cellular expression of the ABCA-1 gene
O=C1CSC(NC(=O)c2ccccc2C(F)(F)F)=N1 [(2-trifluoromethylphenyl)-N-(4-oxo(1,3-thiazolin-2-yl))carboxamide] | elevate cellular expression of the ABCA-1 gene
CCN(CCCN(CC)c1nc2cc(C(=O)Nc3ccc(OC)cc3)ccc2o1)C(=O)c1ccoc1 [(2-{ethyl[3-(N-ethyl-3-furylcarbonylamino)propyl]amino}benzoxazol-5-yl)-N-(4-methoxyphenyl)carboxamide] | elevate cellular expression of the ABCA-1 gene
Cc1ccc2nc(/C(C#N)=C/c3ccco3)[nH]c2c1 [(2E)-3-(2-furyl)-2-(5-methylbenzimidazol-2-yl)prop-2-enenitrile] | elevate cellular expression of the ABCA-1 gene
O=C(/C=C/c1ccccc1)NCCN(C(=O)Nc1cccc(C(F)(F)F)c1)c1ccccc1 [(2E)-3-phenyl-N-[2-(phenyl {N-[3-(trifluoromethyl)phenyl]carbamoyl}amino)ethyl]prop-2-enamide] | elevate cellular expression of the ABCA-1 gene
O=C(Nc1cccc(Cl)c1)Nc1ccc2c(c1)OCCO2 [(2H,3H-benzo[e]1,4-dioxin-6-ylamino)-N-(3-chlorophenyl)lcarboxamide] | elevate cellular expression of the ABCA-1 gene
O=C(Nc1ccc2c(c1)OCCO2)NC1CCCCC1 [(2H,3H-benzo[e]1,4-dioxin-6-ylamino)-N-cyclohexylcarboxamide] | elevate cellular expression of the ABCA-1 gene
